According to PubChem BioAssay (NCI):
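Values below derive from 48-hour exposures of cells grown in 96-well plates, with endpoints linearly interpolated between the two concentrations bracketing the appropriate inhibition level. TGI: total growth inhibition.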

test system: COLO 205 colon; assay: NCI anticancer screen, dose series, 48 h

SMILES | TGI
CC(=O)OC(OC(C)=O)c1ccc2ccc3cccc4ccc1c2c34 | 58.4 µM

test system: SNB-75 CNS; assay: NCI anticancer screen, dose series, 48 h

SMILES | TGI
O=C1C=CC(=O)c2c1ccc1c3ccccc3n(CCCCCn3c4ccccc4c4ccc5c(c43)C(=O)C=CC5=O)c21 | 32.9 µM
C=C(Cl)C(=CCl)CCC(Br)C(C)(C)Cl (mixture of isomers) | > 10 µM
CC(=O)N(C(C)=O)c1ncc(-n2nc(-c3ccccc3)cc2-c2ccccc2)c(-c2ccccc2)n1 | > 10 µM
CN1C(=O)c2ccccc2OC12C=Cc1c(ccc3ccccc13)O2 (stereo unspecified) | 33.1 µM
CC(=O)Nc1sc(Br)cc1S(=O)(=O)c1ccc(Cl)cc1 | 88.6 µM
O=C1Sc2cc3ccccc3cc2C(=O)Sc2ccc(Br)cc21 | 13.3 µM
O=C(/C=C/c1ccccc1)Oc1cccc(O)c1 | > 100 µM
CC(C)NC(=O)OCc1c(COC(=O)NC(C)C)c(-c2cc[n+](COC(=O)C3CC3)cc2)n2c1CCC2 | > 100 µM
COC(=O)C1=C(C(=O)OC)N(c2ccc(OC)cc2[N+](=O)[O-])C(c2ccc(C)cc2)=CC1c1ccc(OC)cc1OC (stereo unspecified) | > 87.7 µM
O=c1[nH]nnc2c1sc1ncccc12 | > 100 µM
Cc1ccc(C2SCC(=O)N2c2ccc(-n3c(-c4ccccc4)nc4ccccc4c3=O)cc2)cc1 (stereo unspecified) | 90.5 µM
C/C=C/C(CC(O)(C(F)(F)F)C(F)(F)F)=N/NC(N)=S | > 10 µM
Fc1ccc2c(c1)nc1n2C(c2c(Cl)cccc2Cl)SC1 (stereo unspecified) | 25.9 µM
NC(N)=NS(=O)(=O)c1ccc(NNc2c3ccccc3nc3c(C(=O)Nc4ccc(S(=O)(=O)Nc5ncccn5)cc4)cccc23)cc1 | > 100 µM
CCOC1(OCC)C2C=CC1C(COS(=O)(=O)c1ccc(C)cc1)C2COS(=O)(=O)c1ccc(C)cc1 (stereo unspecified) | > 100 µM
COc1cc(C2c3cc4c(cc3OC(N3CCCCC3)C2C)OCO4)cc(OC)c1O (stereo unspecified) | 13.7 µM
N#C[C@H](c1ccccn1)c1nc2ccccc2nc1Cl | > 100 µM
Cc1c(C)c2c(c(N)c1C#N)C(=O)N(NC(=O)c1ccccc1)C2=O | > 100 µM
O=C1COc2cccnc2N1CCCCO | > 100 µM
CC(=O)OC(OC(C)=O)c1ccc2ccc3cccc4ccc1c2c34 | 41.6 µM

test system: SK-MEL-2 melanoma; assay: NCI anticancer screen, dose series, 48 h

SMILES | TGI
O=C1C=CC(=O)c2c1ccc1c3ccccc3n(CCCCCn3c4ccccc4c4ccc5c(c43)C(=O)C=CC5=O)c21 | 44.8 µM
C=C(Cl)C(=CCl)CCC(Br)C(C)(C)Cl (mixture of isomers) | > 10 µM
O=C1C2SC34c5c2c2ccccc2n5CCC3CCCN14 (stereo unspecified) | > 100 µM
CC(=O)N(C(C)=O)c1ncc(-n2nc(-c3ccccc3)cc2-c2ccccc2)c(-c2ccccc2)n1 | > 10 µM
CN1C(=O)c2ccccc2OC12C=Cc1c(ccc3ccccc13)O2 (stereo unspecified) | 22 µM
CC(=O)Nc1sc(Br)cc1S(=O)(=O)c1ccc(Cl)cc1 | > 100 µM
O=C1Sc2cc3ccccc3cc2C(=O)Sc2ccc(Br)cc21 | 12.8 µM
O=C(/C=C/c1ccccc1)Oc1cccc(O)c1 | > 100 µM
CC(C)NC(=O)OCc1c(COC(=O)NC(C)C)c(-c2cc[n+](COC(=O)C3CC3)cc2)n2c1CCC2 | > 100 µM
COC(=O)C1=C(C(=O)OC)N(c2ccc(OC)cc2[N+](=O)[O-])C(c2ccc(C)cc2)=CC1c1ccc(OC)cc1OC (stereo unspecified) | > 80.4 µM
O=c1[nH]nnc2c1sc1ncccc12 | > 100 µM
Cc1ccc(C2SCC(=O)N2c2ccc(-n3c(-c4ccccc4)nc4ccccc4c3=O)cc2)cc1 (stereo unspecified) | 51.3 µM
C/C=C/C(CC(O)(C(F)(F)F)C(F)(F)F)=N/NC(N)=S | > 10 µM
Fc1ccc2c(c1)nc1n2C(c2c(Cl)cccc2Cl)SC1 (stereo unspecified) | 29.7 µM
CC(C)C1=CC23CCC4C(C)(C(=O)O)CCCC4(C)C2CC1C1C(=O)N(c2ccc(Cc4ccc(N5C(=O)C6C7CC8C9(C)CCCC(C)(C(=O)O)C9CCC8(C=C7C(C)C)C6C5=O)cc4)cc2)C(=O)C13 (stereo unspecified) | 26.4 µM
NC(N)=NS(=O)(=O)c1ccc(NNc2c3ccccc3nc3c(C(=O)Nc4ccc(S(=O)(=O)Nc5ncccn5)cc4)cccc23)cc1 | > 100 µM
CCOC1(OCC)C2C=CC1C(COS(=O)(=O)c1ccc(C)cc1)C2COS(=O)(=O)c1ccc(C)cc1 (stereo unspecified) | 80.9 µM
Cc1[nH]c(=O)nc2nc3ccc(Cl)cc3c(NCCNCCO)c12 | 28.3 µM
CC(C)(C)OC(=O)NC1CCCCC1NC(=O)C(=O)NC1CCCCC1NC(=O)OC(C)(C)C (stereo unspecified) | > 100 µM
COc1cc(C2c3cc4c(cc3OC(N3CCCCC3)C2C)OCO4)cc(OC)c1O (stereo unspecified) | 25.2 µM
N#C[C@H](c1ccccn1)c1nc2ccccc2nc1Cl | > 100 µM
Cc1c(C)c2c(c(N)c1C#N)C(=O)N(NC(=O)c1ccccc1)C2=O | > 100 µM
O=C1COc2cccnc2N1CCCCO | > 100 µM

test system: 786-0 renal; assay: NCI anticancer screen, dose series, 48 h

SMILES | TGI
O=C1C=CC(=O)c2c1ccc1c3ccccc3n(CCCCCn3c4ccccc4c4ccc5c(c43)C(=O)C=CC5=O)c21 | 14.3 µM
C=C(Cl)C(=CCl)CCC(Br)C(C)(C)Cl (mixture of isomers) | > 10 µM
O=C1C2SC34c5c2c2ccccc2n5CCC3CCCN14 (stereo unspecified) | > 100 µM
CC(=O)N(C(C)=O)c1ncc(-n2nc(-c3ccccc3)cc2-c2ccccc2)c(-c2ccccc2)n1 | > 10 µM
CN1C(=O)c2ccccc2OC12C=Cc1c(ccc3ccccc13)O2 (stereo unspecified) | 25.7 µM
CC(=O)Nc1sc(Br)cc1S(=O)(=O)c1ccc(Cl)cc1 | 92.3 µM
O=C1Sc2cc3ccccc3cc2C(=O)Sc2ccc(Br)cc21 | 5.63 µM
O=C(/C=C/c1ccccc1)Oc1cccc(O)c1 | > 100 µM
CC(C)NC(=O)OCc1c(COC(=O)NC(C)C)c(-c2cc[n+](COC(=O)C3CC3)cc2)n2c1CCC2 | > 100 µM
COC(=O)C1=C(C(=O)OC)N(c2ccc(OC)cc2[N+](=O)[O-])C(c2ccc(C)cc2)=CC1c1ccc(OC)cc1OC (stereo unspecified) | > 94 µM
O=c1[nH]nnc2c1sc1ncccc12 | > 100 µM
Cc1ccc(C2SCC(=O)N2c2ccc(-n3c(-c4ccccc4)nc4ccccc4c3=O)cc2)cc1 (stereo unspecified) | 74.1 µM
C/C=C/C(CC(O)(C(F)(F)F)C(F)(F)F)=N/NC(N)=S | > 10 µM
Fc1ccc2c(c1)nc1n2C(c2c(Cl)cccc2Cl)SC1 (stereo unspecified) | 29.5 µM
CC(C)C1=CC23CCC4C(C)(C(=O)O)CCCC4(C)C2CC1C1C(=O)N(c2ccc(Cc4ccc(N5C(=O)C6C7CC8C9(C)CCCC(C)(C(=O)O)C9CCC8(C=C7C(C)C)C6C5=O)cc4)cc2)C(=O)C13 (stereo unspecified) | 22.8 µM
NC(N)=NS(=O)(=O)c1ccc(NNc2c3ccccc3nc3c(C(=O)Nc4ccc(S(=O)(=O)Nc5ncccn5)cc4)cccc23)cc1 | > 100 µM
CCOC1(OCC)C2C=CC1C(COS(=O)(=O)c1ccc(C)cc1)C2COS(=O)(=O)c1ccc(C)cc1 (stereo unspecified) | > 100 µM
Cc1[nH]c(=O)nc2nc3ccc(Cl)cc3c(NCCNCCO)c12 | 21.2 µM
CC(C)(C)OC(=O)NC1CCCCC1NC(=O)C(=O)NC1CCCCC1NC(=O)OC(C)(C)C (stereo unspecified) | > 100 µM
COc1cc(C2c3cc4c(cc3OC(N3CCCCC3)C2C)OCO4)cc(OC)c1O (stereo unspecified) | 27.7 µM
N#C[C@H](c1ccccn1)c1nc2ccccc2nc1Cl | > 100 µM
Cc1c(C)c2c(c(N)c1C#N)C(=O)N(NC(=O)c1ccccc1)C2=O | > 100 µM
O=C1COc2cccnc2N1CCCCO | > 100 µM
CC(=O)OC(OC(C)=O)c1ccc2ccc3cccc4ccc1c2c34 | > 100 µM

test system: SNB-19 CNS; assay: NCI anticancer screen, dose series, 48 h

SMILES | TGI
O=C1C=CC(=O)c2c1ccc1c3ccccc3n(CCCCCn3c4ccccc4c4ccc5c(c43)C(=O)C=CC5=O)c21 | > 100 µM
C=C(Cl)C(=CCl)CCC(Br)C(C)(C)Cl (mixture of isomers) | > 10 µM
O=C1C2SC34c5c2c2ccccc2n5CCC3CCCN14 (stereo unspecified) | > 100 µM
CC(=O)N(C(C)=O)c1ncc(-n2nc(-c3ccccc3)cc2-c2ccccc2)c(-c2ccccc2)n1 | > 10 µM
CN1C(=O)c2ccccc2OC12C=Cc1c(ccc3ccccc13)O2 (stereo unspecified) | > 59.4 µM
CC(=O)Nc1sc(Br)cc1S(=O)(=O)c1ccc(Cl)cc1 | > 100 µM
O=C1Sc2cc3ccccc3cc2C(=O)Sc2ccc(Br)cc21 | 32.2 µM
O=C(/C=C/c1ccccc1)Oc1cccc(O)c1 | 76.1 µM
CC(C)NC(=O)OCc1c(COC(=O)NC(C)C)c(-c2cc[n+](COC(=O)C3CC3)cc2)n2c1CCC2 | > 100 µM
COC(=O)C1=C(C(=O)OC)N(c2ccc(OC)cc2[N+](=O)[O-])C(c2ccc(C)cc2)=CC1c1ccc(OC)cc1OC (stereo unspecified) | > 95.6 µM
O=c1[nH]nnc2c1sc1ncccc12 | > 100 µM
Cc1ccc(C2SCC(=O)N2c2ccc(-n3c(-c4ccccc4)nc4ccccc4c3=O)cc2)cc1 (stereo unspecified) | > 100 µM
C/C=C/C(CC(O)(C(F)(F)F)C(F)(F)F)=N/NC(N)=S | > 10 µM
Fc1ccc2c(c1)nc1n2C(c2c(Cl)cccc2Cl)SC1 (stereo unspecified) | 27.1 µM
CC(C)C1=CC23CCC4C(C)(C(=O)O)CCCC4(C)C2CC1C1C(=O)N(c2ccc(Cc4ccc(N5C(=O)C6C7CC8C9(C)CCCC(C)(C(=O)O)C9CCC8(C=C7C(C)C)C6C5=O)cc4)cc2)C(=O)C13 (stereo unspecified) | 17.9 µM
NC(N)=NS(=O)(=O)c1ccc(NNc2c3ccccc3nc3c(C(=O)Nc4ccc(S(=O)(=O)Nc5ncccn5)cc4)cccc23)cc1 | > 100 µM
CCOC1(OCC)C2C=CC1C(COS(=O)(=O)c1ccc(C)cc1)C2COS(=O)(=O)c1ccc(C)cc1 (stereo unspecified) | > 100 µM
Cc1[nH]c(=O)nc2nc3ccc(Cl)cc3c(NCCNCCO)c12 | 21.4 µM
CC(C)(C)OC(=O)NC1CCCCC1NC(=O)C(=O)NC1CCCCC1NC(=O)OC(C)(C)C (stereo unspecified) | > 100 µM
COc1cc(C2c3cc4c(cc3OC(N3CCCCC3)C2C)OCO4)cc(OC)c1O (stereo unspecified) | 53.7 µM
N#C[C@H](c1ccccn1)c1nc2ccccc2nc1Cl | > 100 µM
Cc1c(C)c2c(c(N)c1C#N)C(=O)N(NC(=O)c1ccccc1)C2=O | > 100 µM
O=C1COc2cccnc2N1CCCCO | > 100 µM
CC(=O)OC(OC(C)=O)c1ccc2ccc3cccc4ccc1c2c34 | 98.7 µM

test system: RXF 393 renal; assay: NCI anticancer screen, dose series, 48 h

SMILES | TGI
O=C1C=CC(=O)c2c1ccc1c3ccccc3n(CCCCCn3c4ccccc4c4ccc5c(c43)C(=O)C=CC5=O)c21 | 21.1 µM
C=C(Cl)C(=CCl)CCC(Br)C(C)(C)Cl (mixture of isomers) | > 10 µM
O=C1C2SC34c5c2c2ccccc2n5CCC3CCCN14 (stereo unspecified) | > 100 µM
CC(=O)N(C(C)=O)c1ncc(-n2nc(-c3ccccc3)cc2-c2ccccc2)c(-c2ccccc2)n1 | > 10 µM
CN1C(=O)c2ccccc2OC12C=Cc1c(ccc3ccccc13)O2 (stereo unspecified) | 31.1 µM
CC(=O)Nc1sc(Br)cc1S(=O)(=O)c1ccc(Cl)cc1 | 48.4 µM
O=C1Sc2cc3ccccc3cc2C(=O)Sc2ccc(Br)cc21 | 7.88 µM
O=C(/C=C/c1ccccc1)Oc1cccc(O)c1 | > 100 µM
CC(C)NC(=O)OCc1c(COC(=O)NC(C)C)c(-c2cc[n+](COC(=O)C3CC3)cc2)n2c1CCC2 | > 100 µM
COC(=O)C1=C(C(=O)OC)N(c2ccc(OC)cc2[N+](=O)[O-])C(c2ccc(C)cc2)=CC1c1ccc(OC)cc1OC (stereo unspecified) | 50 µM
O=c1[nH]nnc2c1sc1ncccc12 | > 100 µM
Cc1ccc(C2SCC(=O)N2c2ccc(-n3c(-c4ccccc4)nc4ccccc4c3=O)cc2)cc1 (stereo unspecified) | 91.3 µM
C/C=C/C(CC(O)(C(F)(F)F)C(F)(F)F)=N/NC(N)=S | > 10 µM
Fc1ccc2c(c1)nc1n2C(c2c(Cl)cccc2Cl)SC1 (stereo unspecified) | 31.9 µM
CC(C)C1=CC23CCC4C(C)(C(=O)O)CCCC4(C)C2CC1C1C(=O)N(c2ccc(Cc4ccc(N5C(=O)C6C7CC8C9(C)CCCC(C)(C(=O)O)C9CCC8(C=C7C(C)C)C6C5=O)cc4)cc2)C(=O)C13 (stereo unspecified) | 27.4 µM
NC(N)=NS(=O)(=O)c1ccc(NNc2c3ccccc3nc3c(C(=O)Nc4ccc(S(=O)(=O)Nc5ncccn5)cc4)cccc23)cc1 | > 100 µM
CCOC1(OCC)C2C=CC1C(COS(=O)(=O)c1ccc(C)cc1)C2COS(=O)(=O)c1ccc(C)cc1 (stereo unspecified) | > 100 µM
Cc1[nH]c(=O)nc2nc3ccc(Cl)cc3c(NCCNCCO)c12 | 28.5 µM
CC(C)(C)OC(=O)NC1CCCCC1NC(=O)C(=O)NC1CCCCC1NC(=O)OC(C)(C)C (stereo unspecified) | 38.8 µM
COc1cc(C2c3cc4c(cc3OC(N3CCCCC3)C2C)OCO4)cc(OC)c1O (stereo unspecified) | > 100 µM
N#C[C@H](c1ccccn1)c1nc2ccccc2nc1Cl | > 100 µM
Cc1c(C)c2c(c(N)c1C#N)C(=O)N(NC(=O)c1ccccc1)C2=O | > 100 µM
O=C1COc2cccnc2N1CCCCO | > 100 µM
CC(=O)OC(OC(C)=O)c1ccc2ccc3cccc4ccc1c2c34 | 25.3 µM
